# Columns and labels:
# [1] = tested on: chronic atrioventricular block monkeys; assay: Evaluation of QT interval prolongation by dl-sotalol (Holter electrocardiogram); type: in vivo, cynomolgus monkey; conditions: oral administration of 5 mg/kg
# Excerpt: QTc interval (ms) is a value obtained by correcting the fluctuation of QT interval due to heart rate by a numerical formula, and can be obtained by the following equation.
# QTc=QT÷^3√{square root over ( )} (60÷ventricular rhythm)
# Here, ventricular rhythm refers to the frequency of excitation of the ventricle in a complete atrioventricular block, and the unit of measurement is beat/minute.
# Next, a comparison is made between the QT interval or QTc interval in the recipient animal and the QT interval or QTc interval in the same animal but before administration. QT interval or QTc interval prolongation can be determined by (value after administration)−(value before administration).
# As the control solution, 0.5% methylcellulose solution was orally administered, and changes of electrocardiogram were examined; on a later day, 5 mg/kg dl-sotalol (group-3 antiarrhythmic agent) was orally administered to the same animals, and electrocardiogram was measured.
# [2] = tested on: chronic atrioventricular block monkey model; assay: Examination for onset of Torsades de pointes (TdP) with dl-sotalol administration; type: in vivo, cynomolgus monkey; conditions: five animals
# Experimental: A Holter electrocardiograph was attached to each of five animals of the chronic atrioventricular block monkey model obtained in Example 1; 1, 3, 5 or 10 mg/kg dl-sotalol was orally administered to each animal, and electrocardiogram after administration was monitored.
structure (smiles),measurement,setting,value
CC(C)NCC(O)c1ccc(NS(C)(=O)=O)cc1 (racemic) [dl-sotalol],time after administration with statistically significant QTc action compared to the solvent group,[1],1 to 4 h
same,QTc interval prolongation,"[1]; Holter electrocardiograph for 24 hours, compared to the solvent group",QTc interval prolongation was observed
same,animals in which TdP occurred,[2]; 5 mg/kg orally,4 of the 5 animals
same,animals in which TdP occurred,[2]; 10 mg/kg orally,all animals
